Assay type in all cases: cell-based
Test [1] concerns MDA-MB-231 cells. The test can be described thus: MDA-MB-231 cell proliferation assay (Cell-Titer-Glo, 120 hr). The note with it: for pEC50: read-out: MDA-MB 231 Cell Prolif. 120 hr EC50; for MDA-MB 231 Cell Prolif. 120 hr YMin (%): minimal percent of DMSO control observed. Summed up:
(§1)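 MKN45 (400/well) and MDA-MB-231 (800/well) cells in RPMI with 10% FBS were exposed to 10-point half-log doses from 1 or 10 uM (0.1% DMSO) for 120 h at 37 °C. Viability was read by CellTiter-Glo luminescence. EC50 came from blank-subtracted, %DMSO four-parameter fits, with Ymin-obs as the lowest %DMSO observed.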

Test [2] has as its system MKN45 cells. Kind of test: MKN45 cell proliferation assay (Cell-Titer-Glo, 120 hr). Conditions: for MKN45 Cell Prolif. 120 hr YMin (%): minimal percent of DMSO control observed; for pEC50: read-out: MKN45 Cell Prolif. 120 hr EC50. Summed up:
as §1

For test [3], the target named is T1, WEE1 (Homo sapiens, UniProt P30291+Q96SW2).
T1 construct: C-terminal ePL-tagged (DiscoverX, Fremont, CA) full-length WEE1 expression construct; expressed in transfected cells; host or cells: LentiX-HEK293T (Invitrogen), lentivirally transduced; the cells also over-express GSPT1-GN
Kind of test: WEE1-ePL degradation assay (293T-LentiX, InCELL Hunter luminescence, 4 hr). The note with it: for 293T-LentiX WEE1-ePL Degradation 4 hr YMin (%): lower limit of fit, % of DMSO control signal remaining; for DC50: LentiX-HEK293T cells expressing WEE1-ePL, 4 hr incubation, read-out: 293T-LentiX WEE1-ePL Degradation 4 hr EC50. Summed up:
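LentiX-HEK293T cells expressing C-terminally ePL-tagged full-length WEE1 plus non-degradable GSPT1-GN (G575N, N-terminal 158 aa truncated). Treated 4 h at 37 °C with a 10-point, 3-fold series from 1 or 10 µM, then read by InCELL Hunter luminescence. EC50 from four-parameter logistic fit, Ymax set by DMSO control.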

Setting [4] is: Homo sapiens, MDA-MB-231, 120 h.

pEC50: −log10 of the molar value. Where two headings read alike, the source gives them in different places.

T1 sequence (P30291 whole entry): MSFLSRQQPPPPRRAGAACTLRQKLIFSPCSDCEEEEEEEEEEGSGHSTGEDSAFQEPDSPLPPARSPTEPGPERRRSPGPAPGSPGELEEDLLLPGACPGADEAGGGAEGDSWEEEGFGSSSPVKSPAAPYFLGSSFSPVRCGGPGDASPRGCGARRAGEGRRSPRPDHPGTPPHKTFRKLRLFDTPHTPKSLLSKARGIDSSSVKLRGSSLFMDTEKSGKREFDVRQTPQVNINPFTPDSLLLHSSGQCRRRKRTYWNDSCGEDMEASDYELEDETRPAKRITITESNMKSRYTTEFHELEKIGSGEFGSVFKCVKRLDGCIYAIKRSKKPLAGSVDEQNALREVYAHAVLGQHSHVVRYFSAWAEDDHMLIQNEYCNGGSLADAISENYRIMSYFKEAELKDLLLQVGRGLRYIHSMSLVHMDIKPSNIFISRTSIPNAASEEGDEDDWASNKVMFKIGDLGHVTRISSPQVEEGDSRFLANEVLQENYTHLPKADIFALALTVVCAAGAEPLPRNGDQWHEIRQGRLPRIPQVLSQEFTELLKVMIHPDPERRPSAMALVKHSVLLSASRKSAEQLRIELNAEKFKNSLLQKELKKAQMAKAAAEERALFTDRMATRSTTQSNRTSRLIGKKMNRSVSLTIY
T1 sequence (Q96SW2 whole entry): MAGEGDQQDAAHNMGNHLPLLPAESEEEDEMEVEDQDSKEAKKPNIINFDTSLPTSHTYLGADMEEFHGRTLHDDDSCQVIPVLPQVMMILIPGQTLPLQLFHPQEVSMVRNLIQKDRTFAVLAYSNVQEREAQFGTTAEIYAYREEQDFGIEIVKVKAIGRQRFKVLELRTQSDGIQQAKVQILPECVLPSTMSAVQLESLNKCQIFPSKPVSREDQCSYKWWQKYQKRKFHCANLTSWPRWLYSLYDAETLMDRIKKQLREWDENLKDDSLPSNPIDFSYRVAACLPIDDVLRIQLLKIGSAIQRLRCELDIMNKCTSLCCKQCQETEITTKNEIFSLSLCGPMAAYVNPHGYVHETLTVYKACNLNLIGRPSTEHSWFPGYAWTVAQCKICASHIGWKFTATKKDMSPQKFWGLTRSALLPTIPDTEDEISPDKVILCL
T1 sequence (Q16531 whole entry partner): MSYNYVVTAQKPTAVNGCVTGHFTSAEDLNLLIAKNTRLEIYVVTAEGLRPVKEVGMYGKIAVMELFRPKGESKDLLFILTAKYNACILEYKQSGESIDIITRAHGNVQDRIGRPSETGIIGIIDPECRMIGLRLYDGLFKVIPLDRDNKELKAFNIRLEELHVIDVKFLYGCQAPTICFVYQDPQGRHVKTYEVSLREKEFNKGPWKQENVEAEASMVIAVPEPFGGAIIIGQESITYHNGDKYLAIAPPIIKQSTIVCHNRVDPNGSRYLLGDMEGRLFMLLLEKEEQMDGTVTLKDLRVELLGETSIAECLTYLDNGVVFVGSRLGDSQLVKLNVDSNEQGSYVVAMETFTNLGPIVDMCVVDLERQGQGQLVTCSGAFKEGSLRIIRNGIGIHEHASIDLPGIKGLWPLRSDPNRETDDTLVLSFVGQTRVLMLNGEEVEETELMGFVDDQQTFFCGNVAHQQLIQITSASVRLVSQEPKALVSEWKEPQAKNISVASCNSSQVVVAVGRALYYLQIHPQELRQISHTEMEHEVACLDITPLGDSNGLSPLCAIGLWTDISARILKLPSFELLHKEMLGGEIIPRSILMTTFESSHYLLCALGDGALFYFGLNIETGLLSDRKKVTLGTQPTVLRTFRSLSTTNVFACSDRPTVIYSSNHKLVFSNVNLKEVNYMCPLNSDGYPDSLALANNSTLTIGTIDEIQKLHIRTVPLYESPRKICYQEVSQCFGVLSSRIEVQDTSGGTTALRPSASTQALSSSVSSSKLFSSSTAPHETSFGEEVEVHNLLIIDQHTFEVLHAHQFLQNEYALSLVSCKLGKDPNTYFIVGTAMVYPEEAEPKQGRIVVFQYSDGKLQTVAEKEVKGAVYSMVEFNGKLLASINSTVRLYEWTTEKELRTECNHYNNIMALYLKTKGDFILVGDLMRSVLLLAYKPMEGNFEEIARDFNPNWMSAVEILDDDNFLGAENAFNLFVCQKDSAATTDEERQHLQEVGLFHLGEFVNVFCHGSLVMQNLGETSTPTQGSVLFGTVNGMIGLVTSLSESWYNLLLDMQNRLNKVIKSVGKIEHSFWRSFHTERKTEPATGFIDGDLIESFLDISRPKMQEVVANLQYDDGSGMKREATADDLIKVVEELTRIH

Consider `O=C1CC[C@H](N2Cc3cc(O[C@@H]4CN(Cc5cc(F)c6nc(C7CCOCC7)ccc6c5)C[C@H]4c4ccncc4)ccc3C2=O)C(=O)N1` (relative stereo) [Example 118, (S)-3-(5-(((3S*,4R*)-1-((8-fluoro-2-(tetrahydro-2H-pyran-4-yl)quinolin-6-yl)methyl)-4-(pyridin-4-yl)pyrrolidin-3-yl)oxy)-1-oxoisoindolin-2-yl)piperidine-2,6-dione], for which, in test [1] (setting [4]), the pEC50 was 6.54. Also, the “MDA-MB 231 Cell Prolif. 120 hr YMin (%)” value in test [1] worked out at 70.2%. For the same compound, in test [2], the “MKN45 Cell Prolif. 120 hr YMin (%)” value amounted to 65.0%. Besides, the “293T-LentiX WEE1-ePL Degradation 4 hr YMin (%)” value in test [3] was found to be 92.4%.
On to `O=C1CC[C@H](N2Cc3cc(O[C@@H]4CN(Cc5cc(F)c6nc(C7CCOCC7)ccc6c5)C[C@H]4C4CCCC4)ccc3C2=O)C(=O)N1` (relative stereo) [Example 123, (S)-3-(5-(((3S*,4R*)-4-Cyclopentyl-1-((8-fluoro-2-(tetrahydro-2H-pyran-4-yl)-quinolin-6-yl)methyl)pyrrolidin-3-yl)oxy)-1-oxoisoindolin-2-yl)piperidine-2,6-dione], for which the pEC50 in test [1] (setting [4]) is 5.46. In test [1], the “MDA-MB 231 Cell Prolif. 120 hr YMin (%)” value worked out at 81.9%. For the same compound, in test [2], the “MKN45 Cell Prolif. 120 hr YMin (%)” value is on record as 80.9%. The “293T-LentiX WEE1-ePL Degradation 4 hr YMin (%)” value in test [3] is on record as 82.5%.
As to `Cc1cc([C@@H]2CN(Cc3cc(F)c4nc(C5CCOCC5)ccc4c3)C[C@H]2Oc2ccc3c(c2)CN([C@H]2CCC(=O)NC2=O)C3=O)cc(C)n1` (relative stereo) [Example 127, (3S)-3-(5-{[(3S*,4R*)-4-(2,6-dimethylpyridin-4-yl)-1-{[8-fluoro-2-(oxan-4-yl)quinolin-6-yl]methyl}pyrrolidin-3-yl]oxy}-1-oxo-2,3-dihydro-1H-isoindol-2-yl)piperidine-2,6-dione], the pEC50 in test [1] (setting [4]) was 6.56; in test [2] (Homo sapiens, MKN-45, 120 h), 7.92. Besides, the “MDA-MB 231 Cell Prolif. 120 hr YMin (%)” value in test [1] was determined as 40.1%. The “MKN45 Cell Prolif. 120 hr YMin (%)” value in test [2] was 9.8%. Moreover, in test [3], the DC50 was determined as 3 nM. The “293T-LentiX WEE1-ePL Degradation 4 hr YMin (%)” value in test [3] was 20.2%.
Turning to `CC(C)C[C@@H]1CN(Cc2cc(F)c3nc(C4CCOCC4)ccc3c2)C[C@H]1Oc1ccc2c(c1)CN([C@H]1CCC(=O)NC1=O)C2=O` (relative stereo) [Example 130, (3S)-3-(5-{[(3S*,4R*)-1-{[8-fluoro-2-(oxan-4-yl)quinolin-6-yl]methyl}-4-(2-methylpropyl)pyrrolidin-3-yl]oxy}-1-oxo-2,3-dihydro-1H-isoindol-2-yl)piperidine-2,6-dione], the pEC50 in test [1] (setting [4]) was 5.22. Moreover, the “MDA-MB 231 Cell Prolif. 120 hr YMin (%)” value in test [1] came out at 84.1%. In addition, in test [2] (Homo sapiens, MKN-45, 120 h), the pEC50 is 9.00. Further, in test [2], the “MKN45 Cell Prolif. 120 hr YMin (%)” value amounted to 94.4%. Besides, in test [3], the DC50 worked out at 6 nM and the “293T-LentiX WEE1-ePL Degradation 4 hr YMin (%)” value amounted to 78.0%.
Consider `O=C1CC[C@H](N2Cc3cc(O[C@H]4CN(Cc5cc(F)c6nc(C7CCOCC7)ccc6c5)C[C@@H]4c4ccccc4)ccc3C2=O)C(=O)N1` (relative stereo) [Example 145, (S)-3-(5-(((3R*,4S*)-1-((8-fluoro-2-(tetrahydro-2H-pyran-4-yl)quinolin-6-yl)methyl)-4-phenylpyrrolidin-3-yl)oxy)-1-oxoisoindolin-2-yl)piperidine-2,6-dione], for which the pEC50 in test [1] (setting [4]) is 5.63. Besides, the “MDA-MB 231 Cell Prolif. 120 hr YMin (%)” value in test [1] amounted to 74.7%. In addition, the pEC50 in test [2] (Homo sapiens, MKN-45, 120 h) was 7.48. For the same compound, the “MKN45 Cell Prolif. 120 hr YMin (%)” value in test [2] worked out at 16.3%. In test [3], the DC50 is 4 nM and the “293T-LentiX WEE1-ePL Degradation 4 hr YMin (%)” value stood at 22.4%.
For the compound `O=C1CC[C@H](N2Cc3cc(O[C@H]4CN(Cc5cc(F)c6nc(C7CCOCC7)ccc6c5)C[C@@H]4C4CCCC4)ccc3C2=O)C(=O)N1` (relative stereo) [Example 146, (S)-3-(5-(((3R*,4S*)-4-Cyclopentyl-1-((8-fluoro-2-(tetrahydro-2H-pyran-4-yl)-quinolin-6-yl)methyl)pyrrolidin-3-yl)oxy)-1-oxoisoindolin-2-yl)piperidine-2,6-dione], the pEC50 in test [1] (setting [4]) is 6.23. The “MDA-MB 231 Cell Prolif. 120 hr YMin (%)” value in test [1] is on record as 50.7%. The pEC50 in test [2] (Homo sapiens, MKN-45, 120 h) was 8.52. The “MKN45 Cell Prolif. 120 hr YMin (%)” value in test [2] came to 10.8%. In addition, in test [3], the DC50 was found to be 1 nM and the “293T-LentiX WEE1-ePL Degradation 4 hr YMin (%)” value is on record as 24.2%.
Regarding `Cc1cc([C@H]2CN(Cc3cc(F)c4nc(C5CCOCC5)ccc4c3)C[C@@H]2Oc2ccc3c(c2)CN([C@H]2CCC(=O)NC2=O)C3=O)cc(C)n1` (relative stereo) [Example 147, (S)-3-(5-(((3R*,4S*)-4-(2,6-dimethylpyridin-4-yl)-1-((8-fluoro-2-(tetrahydro-2H-pyran-4-yl)quinolin-6-yl)methyl)pyrrolidin-3-yl)oxy)-1-oxoisoindolin-2-yl)piperidine-2,6-dione], the pEC50 was 6.35 in test [1] (setting [4]) and 6.51 in test [2] (Homo sapiens, MKN-45, 120 h). The “MDA-MB 231 Cell Prolif. 120 hr YMin (%)” value in test [1] is recorded as 79.7%. Moreover, the “MKN45 Cell Prolif. 120 hr YMin (%)” value in test [2] is given as 92.2%. Moreover, the “293T-LentiX WEE1-ePL Degradation 4 hr YMin (%)” value in test [3] was 93.2%.
For the compound `CC(C)C[C@H]1CN(Cc2cc(F)c3nc(C4CCOCC4)ccc3c2)C[C@@H]1Oc1ccc2c(c1)CN([C@H]1CCC(=O)NC1=O)C2=O` (relative stereo) [Example 148, (3S)-3-(5-{[(3R*,4S*)-1-{[8-fluoro-2-(oxan-4-yl)quinolin-6-yl]methyl}-4-(2-methylpropyl)pyrrolidin-3-yl]oxy}-1-oxo-2,3-dihydro-1H-isoindol-2-yl)piperidine-2,6-dione], in test [1] (setting [4]), the pEC50 is 6.68. For the same compound, the “MDA-MB 231 Cell Prolif. 120 hr YMin (%)” value in test [1] is 74.8%. Further, the pEC50 in test [2] (Homo sapiens, MKN-45, 120 h) was 8.52. In addition, in test [2], the “MKN45 Cell Prolif. 120 hr YMin (%)” value is 9.9%. In test [3], the DC50 is 1 nM and the “293T-LentiX WEE1-ePL Degradation 4 hr YMin (%)” value amounted to 28.4%.
Take `O=C1CC[C@H](N2Cc3cc(O[C@H]4CN(Cc5cc(F)c6nc(C7CCOCC7)ccc6c5)C[C@@H]4c4ccncc4)ccc3C2=O)C(=O)N1` (relative stereo) [Example 149, ((S)-3-(5-(((3R*,4S*)-1-((8-fluoro-2-(tetrahydro-2H-pyran-4-yl)quinolin-6-yl)methyl)-4-(pyridin-4-yl)pyrrolidin-3-yl)oxy)-1-oxoisoindolin-2-yl)piperidine-2,6-dione]: the pEC50 in test [1] (setting [4]) was 6.37; in test [2] (Homo sapiens, MKN-45, 120 h) it was 7.64. Also, the “MDA-MB 231 Cell Prolif. 120 hr YMin (%)” value in test [1] is given as 68.7%. Also, in test [2], the “MKN45 Cell Prolif. 120 hr YMin (%)” value is reported as 11.0%. In test [3], the DC50 worked out at 7 nM. Moreover, the “293T-LentiX WEE1-ePL Degradation 4 hr YMin (%)” value in test [3] worked out at 24.4%.
Turning to `CN1CC2(CC(c3ccc4cc(CN5CC[C@H](Oc6ccc7c(c6)CN([C@H]6CCC(=O)NC6=O)C7=O)C5)ccc4n3)CO2)C1` (single isomer, unassigned) [Example 1, (S)-3-(5-(((S)-1-((2-((R*)-2-methyl-5-oxa-2-azaspiro[3.4]octan-7-yl)quinolin-6-yl)methyl)pyrrolidin-3-yl)oxy)-1-oxoisoindolin-2-yl)piperidine-2,6-dione], in test [1], the “MDA-MB 231 Cell Prolif. 120 hr YMin (%)” value is 70.9% and the pEC50 was 5.81. In addition, the pEC50 in test [2] (Homo sapiens, MKN-45, 120 h) was 7.12. The “MKN45 Cell Prolif. 120 hr YMin (%)” value in test [2] turned out to be 16.1%. Further, in test [3], the DC50 came out at 368 nM and the “293T-LentiX WEE1-ePL Degradation 4 hr YMin (%)” value is 30.7%.
On to `CN1CC2(CC(c3ccc4cc(CN5CC[C@H](Oc6ccc7c(c6)CN([C@H]6CCC(=O)NC6=O)C7=O)C5)ccc4n3)CO2)C1` (single isomer, unassigned) [Example 2, (S)-3-(5-(((S)-1-((2-((S*)-2-methyl-5-oxa-2-azaspiro[3.4]octan-7-yl)quinolin-6-yl)methyl)pyrrolidin-3-yl)oxy)-1-oxoisoindolin-2-yl)piperidine-2,6-dione], for which, in test [1], the “MDA-MB 231 Cell Prolif. 120 hr YMin (%)” value stood at 73.8% and the negative logarithm of the EC50 (pEC50) was 6.63. In test [2], the “MKN45 Cell Prolif. 120 hr YMin (%)” value came out at 28.1% and the pEC50 was 7.28. In test [3], the DC50 came out at 339 nM and the “293T-LentiX WEE1-ePL Degradation 4 hr YMin (%)” value is reported as 33.4%.
For `CN1CC[C@]2(C[C@@H](c3ccc4cc(CN5CC[C@H](Oc6ccc7c(c6)CN([C@H]6CCC(=O)NC6=O)C7=O)C5)ccc4n3)CO2)C1` (single isomer, unassigned) [Example 4], the pEC50 in test [1] (setting [4]) was 6.84. In test [1], the “MDA-MB 231 Cell Prolif. 120 hr YMin (%)” value is reported as 61.3%. In addition, the pEC50 in test [2] (Homo sapiens, MKN-45, 120 h) was 7.64. In test [2], the “MKN45 Cell Prolif. 120 hr YMin (%)” value was determined as 12.6%. Further, in test [3], the DC50 was 14 nM and the “293T-LentiX WEE1-ePL Degradation 4 hr YMin (%)” value was determined as 30.9%.
With `COC[C@@H]1CN(Cc2ccc3nc(N4C[C@H]5CCO[C@H]5C4)ccc3c2)C[C@H]1Oc1ccc2c(c1)CN([C@H]1CCC(=O)NC1=O)C2=O` (single isomer, unassigned) [Example 5, (S)-3-(5-(((3S,4S)-1-((2-((3aR*,6aR*)-hexahydro-5H-furo[2,3-c]pyrrol-5-yl)quinolin-6-yl)methyl)-4-(methoxymethyl)pyrrolidin-3-yl)oxy)-1-oxoisoindolin-2-yl)piperidine-2,6-dione], the pEC50 in test [1] (setting [4]) was 7.92. Besides, the “MDA-MB 231 Cell Prolif. 120 hr YMin (%)” value in test [1] worked out at 45.5%. Moreover, in test [2] (Homo sapiens, MKN-45, 120 h), the pEC50 is 9.00. Moreover, the “MKN45 Cell Prolif. 120 hr YMin (%)” value in test [2] amounted to 10.6%. Besides, in test [3], the DC50 was 1 nM and the “293T-LentiX WEE1-ePL Degradation 4 hr YMin (%)” value was found to be 32.3%.

Source of the values: patent US20250197374A1, “WEE1 DEGRADING COMPOUNDS AND USES THEREOF” (BRISTOL-MYERS SQUIBB COMPANY, priority 2023, published 2025).
